Source: article PMC11079029, “Intramolecular autoinhibition regulates the selectivity of PRPF40A tandem WW domains for proline-rich motifs” (Nature Communications, 2024)
Read-outs that look alike come from different tables or passages of the source.

Assays:
[1] = molecular target: T1, PRPF40A N-ext-WW12 (residues 56–236) (Homo sapiens, UniProt O75400); test: ITC of N-terminally extended WW12 with SF1 peptides; format: binding; details: for Kd: ITC
T1 construct: WW12long 141–248, and N-ext-WW12 56–236; 6xHis-TEV site (N, cleaved yes); made in house; host or cells: Escherichia coli BL21(DE3)
T1 sequence (O75400 56-236): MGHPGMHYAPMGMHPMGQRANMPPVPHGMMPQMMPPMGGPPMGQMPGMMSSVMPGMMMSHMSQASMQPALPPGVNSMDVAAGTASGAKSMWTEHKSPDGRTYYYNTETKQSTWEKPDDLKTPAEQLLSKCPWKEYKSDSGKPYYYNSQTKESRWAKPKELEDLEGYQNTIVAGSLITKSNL
Text: (§1) PRPF40A isoform 1 sequences (N-ter 1–310, WW12short 141–223, WW12 141–236, WW12long 141–248, and N-ext-WW12 56–236) were amplified from a purchased DNA fragment (IDT) and cloned using NcoI and KpnI restriction sites into a pETM11 vector encoding 6xHis and TEV cleavage site as a N-terminal tag. SF1 (Pro A 410–468, Pro B 468–539, Pro C 539–594, Pro D 594–639, Pro BC 468–594, Pro CD 539–639, Pro BCD 468–639 and Pro ABCD 410–639) and SF3A1 (Middle Pro 364–413 and C-ter Pro 552–683) constructs were prepared in a similar manner using a pET24 vector with a 6xHis, GB1 and TEV cleavage site as N-terminal fusion cassette. 16-mer SF1 constructs (Table 1) and polyproline peptides (P6, P8, P10, P13, P16, P19, P22, P25, and P29) were cloned in the same pET24 vector with GB1 tag by direct ligation of purchased oligonucleotides (Eurofins). All peptide sequences contained N and C-terminal common residues to avoid boundary effects on binding: TEVsite-GAMSGS-peptide-SGSN. Mutants of PRPF40A WW12 and N-ext-WW12 constructs were prepared by site-directed mutagenesis. The truncated version of PRPF40A WW12 (141-217) was a gift from Dr. María Macías (IRB, Spain). All used oligonucleotides were purchased from Eurofins Genomics and are shown in Supplementary Table 6.
(§2) Resuspended cell pellets in 20 mM Tris pH 8.0, 500 mM NaCl, 10 mM imidazole, 0.5 mM TCEP, and protease inhibitors mix (SERVA) were lysed by cell disruption in a French press. Clear lysates, after centrifugation (at 18,000 g) and filtering, were loaded into Ni-NTA resin. The resin was then washed with 20 mM imidazole containing buffer, and the desired protein was eluted with 500 mM imidazole. PRPF40A constructs were then subjected to TEV protease treatment (homemade at a final concentration of ≈50 μg/ml), dialyzed overnight at 4 °C against an imidazole-free buffer, and then loaded again to Ni-NTA resin; desired digested proteins were obtained in the flow-through and wash fractions while uncleaved protein, TEV protease, and impurities remained bound to the resin. Cleaved PRPF40A proteins and GB1-tagged SF1, SF3A1, and polyproline constructs were further purified by size-exclusion chromatography on a HiLoad 16/60 Superdex 75 column (GE Healthcare) equilibrated with 20 mM sodium phosphate, pH 6.5, 100 mM NaCl and 1 mM DTT buffer. For the purification of PRPF40A WW12 in complex with SF1 peptide, cell pellets of recombinant expression for both proteins were mixed and processed together following the Ni-NTA—TEV digestion—reverse Ni-NTA—SEC-75 protocol; where the complex remained bound in a 1:1 stoichiometry throughout the whole purification (corroborated by NMR). Molecular weight of each sample was confirmed by mass spectrometry, purity was checked by PAGE-SDS, and protein concentrations were determined from the aromatic contribution to the UV absorbance spectra at 280 nm.
(§3) Experiments were conducted on a MicroCAl PEAQ-ITC (Malvern Instruments, UK) at 25 °C in 20 mM sodium phosphate pH 6.5 and 100 mM NaCl. PRPF40A was titrated into N-terminal GB1 tagged SF1 or polyproline constructs and vice versa with similar results. Protein concentrations in the cell were around 20–40 μM, while in the syringe ranged between 200 and 500 μM. Experiments were performed at least in duplicate with injections of 1.5 μL (0.4 μL for first point) separated by 150 s delays to recover thermal power baseline and continuous stirring in the cell (750 rpm) for correct mixing. The reference cell was filled with water in all experiments. Data were processed by removing the blank experiment (using digested GB1 fusion protein) and adjusted to one-site binding model with Malvern PEAQ-ITC Analysis software (Malvern Instruments, UK).

[2] = system: PRPF40A WW12; test: NMR titration (1H-15N HSQC, chemical shift perturbation) of WW12 with polyproline or SF1 peptides; format: binding, human; details: 15N-labelled WW12 around 100 μM, unlabelled GB1-tagged peptide, 25 °C
Method: (§4) NMR samples were prepared at concentrations ranging 100–1000 μM in buffer containing 20 mM sodium phosphate pH 6.5, 100 mM NaCl, 1 mM DTT, and 10% or 100% D2O, and measured at 25 °C (except stated otherwise) in 900-, 800-, 600- and 500-MHz Bruker Avance III NMR spectrometers equipped with cryogenic triple resonance gradient probes. Topspin 4.1.0 (Bruker) software was used for NMR data acquisition. Spectra were processed with NMRpipe 8.9[76] and analyzed using ccpnNMR Analysis 2.5 software.
(§5) ^15N-labeled PRPF40A proteins (WW1, WW2, WW12, and N-extWW12) at around 100 μM concentration were titrated with increasing concentration ratios of polyproline or SF1 peptides (GB1 tagged) until reaching saturation, when possible; ^1H-^15N HSQC experiments and in some cases ^1H-^13C HSQC experiments (using double-labeled PRPF40A proteins) were acquired at each titration point. The chemical shift perturbation (CSP) was weighted using the Eqs. (1) and (2)[89].1 CSP(HN)=0.5⋅ΔδH2+0.14⋅ΔδN2 2 CSP(HC)=0.5⋅ΔδH2+0.3⋅ΔδC2

[3] = molecular target: T2, PRPF40A WW12 (tandem WW domains, residues 141–236) (Homo sapiens, UniProt O75400); test: ITC of PRPF40A WW12 with GB1-tagged proline-rich peptides and constructs; format: binding
T2 construct: WW12 141–236, WW12long 141–248, and N-ext-WW12 56–236; 6xHis-TEV site (N, cleaved yes); made in house; host or cells: Escherichia coli BL21(DE3)
Text: as §1, §2, §3

[4] = system: PRPF40A N-ext-WW12; test: NMR titration (1H-15N and 1H-13C HSQC) of N-ext-WW12 with SF1 peptides; format: binding, human; details: NMR titration of N-ext-WW12, ratios 1:1 up to 1:4
Method: as §4, §5

In the case of PPLPPGAPPPPPPPPP [SF1WWbs], the “N (sites)” value ([1]; ITC as E7) is reported as 0.88 ± 0.03 sites, the “DH” value ([1]; ITC binding enthalpy, as E7) is reported as -66.1 ± 3.7 kJ/mol and the Kd ([1]; 25 °C, 20 mM sodium phosphate pH 6.5, 100 mM NaCl, GB1-tagged SF1 16-mer, N-terminally extended WW12, at least duplicates, listed as 575 PPLPPGAPPPPPPPPP 590, read-out: Kd) is reported as 8.71 ± 0.88 µM. For the same sequence, the Kd ([1]; 25 °C, 20 mM sodium phosphate pH 6.5, 100 mM NaCl, GB1-tagged SF1 16-mer, N-terminally extended WW12, at least duplicates, read-out: Kd) was less than 10 µM, the Kd ([1]; SF1 peptides, individual value 1 (replicate 1), read-out: Kd Values with Nter Ext WW12, individual value) was 9.19 µM and the Kd ([1]; SF1 peptides, individual value 2 (replicate 2), read-out: Kd Values with Nter Ext WW12, individual value) was 8.22 µM. The “binding by NMR titration, exchange regime” value [2] was “slow exchange regime”, the “N (sites)” value ([3]; ITC as E1, peptide in the cell, WW tandem in the syringe, N >1 = more than one WW tandem per peptide) was 1.00 ± 0.03 sites and the “DH” value ([3]; ITC binding enthalpy, as E1) was -81.8 ± 1.7 kJ/mol. The “Kd (µM)” value ([3]; ITC, 25 °C, 20 mM sodium phosphate pH 6.5, 100 mM NaCl, GB1-tagged polyproline or SF1 16-mer peptide in the cell, WW tandem in the syringe, one-site model, apparent Kd, average of at least duplicates) was “low micromolar range”, the Kd ([3]; ITC, SF1 peptides, individual value 1 (replicate 1), read-out: Kd Values with WW12, individual value) was 1290 nM and the Kd ([3]; ITC, SF1 peptides, individual value 2 (replicate 2), read-out: Kd Values with WW12, individual value) was 1240 nM. The Kd ([3]; ITC, SF1 peptides, individual value 3 (replicate 3), read-out: Kd Values with WW12, individual value) was 1620 nM, the Kd ([3]; ITC, SF1 peptides, individual value 5 (replicate 5), read-out: Kd Values with WW12, individual value) was 1290 nM and the Kd ([3]; ITC, mean over the peptides of the classification group, read-out: Kd Values with WW12, averaged group) was 1400 nM. For the same sequence, the “displacement of the intramolecular N-terminal motifs (methyl signals Val 80, Val 129)” value [4] was “able to displace the intramolecular interaction”.
